Results from patent US20080108645A1, “Dihydrotetrabenazines And Pharmaceutical Compositions Containing Them” (CAMBRIDGE LABORATORIES, (IRELAND), LTD., priority 2004, published 2008).
Entries after “also recorded” stand apart in the source; their conditions may differ.

Tests used:
Male Sprague-Dawley rats = experiment: Spontaneous locomotor activity in rats (sedative properties); type: in vivo, rat
Procedure: A study was carried out in rats to determine whether the dihydrotetrabenazine isomers of the invention have sedative properties. The effects of the isomers on spontaneous locomotor activity in rats were compared with the effects produced by tetrabenazine and haloperidol using the methods set out below.
Male Sprague-Dawley rats, (Charles River Laboratories, Saint-Germain/L'Arbresle, France), weighing 200-250 g at the beginning of the study, were used for the studies. The rats were housed, 2 or 3 per cage, in Makrolon type III cages, in a room set up with the following environmental conditions: temperature: 20±2° C., humidity: minimum 45%, air changes: >12 per hour, light/dark cycle of 12 h/12 h [on at 7:00 a.m.]. The rats were allowed to acclimatize to their conditions for at least five days before commencement of the study. The rats received food (Dietex, Vigny, France, ref. 811002) and water (tap water in water bottle) ad libitum.
Solutions of each test compound in corn oil were freshly prepared on the day of the experiment. Haloperidol was prepared in hydroxyethylcellulose, 0.5% in deionized water. Either the vehicle or the test compounds were administered as a single dose (0.3, 1, 3 and 10 mg/kg, 2 mL/kg i.p.). The reference compound haloperidol (1 mg/kg) was administered i.p. (2 mL/kg).
The animals were placed in plexiglass cages under a video camera in a room with low light intensity (maximum 50 lux). At forty five minutes and 3 hours after administration, locomotor activity was determined during 20 minute periods using a video image analyzer (Videotrack, View Point, France). Locomotor activity was recorded in the reference group (haloperidol) at 1 hour after administration. The number and duration of ambulatory movements and duration of inactivity was measured. At the end of the locomotor activity measurement (45 minutes and 3 hours), palpebral closure and arousal were be scored as follows in the plexiglass cage:
The number of occurrences and duration (in seconds) of ambulatory (large) movements and the duration of periods of inactivity (seconds) was determined during two 20 minute periods (45 minutes and 3 hours after administration) using a video image analyzer (Videotrack, ViewPoint, Lyon, France). Image tracking was performed using a video camera placed above the plexiglass cage, recording overall locomotor activity. Images recorded with the video camera were digitalized and displacement of the centre of gravity of the digital image spots was tracked and analyzed using the following method: the speed of displacement of the centre of gravity of the spot was measured and two threshold values were set to define the type of movement: threshold 1 (high speed) and threshold 2 (low speed). When the animal moved and the speed of displacement of the centre of gravity of the spot was above threshold 1, the movement was considered as an ambulatory movement.
The results were expressed as the means±SEMs of the 12 individual values. Statistical analyses were carried out using ANOVA (one way) and Dunnett's t-test and with the non parametric test of Kruskal-Wallis followed by a Mann & Whitney U-test for the sedation cotation. A p value of p<0.05 was taken as indicating significance.

VMAT2 = VMAT2 (Homo sapiens, UniProt Q05940); conditions: Erickson et al. (1996); cited from earlier work
Adrenergic α2A Receptor = biological target: T1, Adrenergic α2A Receptor (Homo sapiens, UniProt P08913); experiment: Adrenergic α2A receptor radioligand binding; conditions: 10 μM; 1 nM [3H] MK-912
T1 construct: expressed in transfected cells; host or cells: insect Sf9 cells
T1 sequence (P08913 1-465): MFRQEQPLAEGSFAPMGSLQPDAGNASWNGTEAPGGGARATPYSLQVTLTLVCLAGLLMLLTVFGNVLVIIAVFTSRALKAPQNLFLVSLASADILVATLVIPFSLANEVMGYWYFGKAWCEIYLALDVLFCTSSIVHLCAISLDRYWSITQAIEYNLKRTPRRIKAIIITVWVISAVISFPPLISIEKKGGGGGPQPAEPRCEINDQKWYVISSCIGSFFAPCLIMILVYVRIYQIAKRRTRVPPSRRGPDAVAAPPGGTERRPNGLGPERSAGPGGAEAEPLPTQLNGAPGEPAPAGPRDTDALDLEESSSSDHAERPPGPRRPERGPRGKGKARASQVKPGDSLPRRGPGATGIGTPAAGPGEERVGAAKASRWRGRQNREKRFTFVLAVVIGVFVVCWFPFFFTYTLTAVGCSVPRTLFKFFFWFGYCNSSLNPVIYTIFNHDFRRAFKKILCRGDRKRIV
Procedure: (§1) (a) Adrenergic α2A Receptor: • Reference: S. Uhlen et al. J. Pharmacol. Exp. Ther., 271:1558-1565 (1994) • Source: Human recombinant insect Sf9 cells • Ligand: 1 nM [^3H] […] J. Pharmacol., 99:803-809, (1990) • Source: Wistar rat cerebral cortex • Ligand: 2 nM [3H]

Adrenergic α2B Receptor = biological target: T2, Adrenergic α2B Receptor (Homo sapiens, UniProt P18089); experiment: Adrenergic α2B receptor radioligand binding; conditions: 10 μM; 2.5 nM [3H] Rauwolscine
T2 construct: expressed in transfected cells; host or cells: CHO-K1 cells
T2 sequence (P18089 1-450): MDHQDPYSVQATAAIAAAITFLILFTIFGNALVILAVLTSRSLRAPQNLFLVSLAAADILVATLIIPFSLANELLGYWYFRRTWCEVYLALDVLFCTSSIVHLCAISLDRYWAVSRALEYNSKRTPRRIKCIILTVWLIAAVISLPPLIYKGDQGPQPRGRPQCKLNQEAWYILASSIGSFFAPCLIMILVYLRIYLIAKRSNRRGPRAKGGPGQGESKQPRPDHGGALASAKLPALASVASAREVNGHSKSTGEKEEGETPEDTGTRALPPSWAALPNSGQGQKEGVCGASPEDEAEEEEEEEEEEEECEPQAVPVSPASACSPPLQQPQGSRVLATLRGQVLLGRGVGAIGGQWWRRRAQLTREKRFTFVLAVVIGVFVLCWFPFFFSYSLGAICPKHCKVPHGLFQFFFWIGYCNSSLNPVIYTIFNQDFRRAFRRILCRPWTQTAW
Procedure: as §1

Dopamine D1 Receptor = biological target: T3, Dopamine D1 Receptor (Homo sapiens, UniProt P21728); experiment: Dopamine D1 receptor radioligand binding; conditions: 10 μM; 1.4 nM [3H] SCH-23390
T3 construct: expressed in transfected cells; host or cells: CHO cells
Procedure: as §1

Dopamine D2L Receptor = biological target: T4, Dopamine D2L Receptor (Homo sapiens, UniProt P14416); experiment: Dopamine D2L receptor radioligand binding; conditions: 10 μM; 0.16 nM [3H] Spiperone
T4 construct: expressed in transfected cells; host or cells: CHO cells
Procedure: as §1

Dopamine D3 Receptor = biological target: T5, Dopamine D3 Receptor (Homo sapiens, UniProt P35462); experiment: Dopamine D3 receptor radioligand binding; conditions: 10 μM; 0.7 nM [3H] Spiperone
T5 construct: expressed in transfected cells; host or cells: CHO cells
Procedure: as §1

[1] = system: Imidazoline I2 (Central) Receptor; experiment: Imidazoline I2 (central) receptor radioligand binding; design: species or system Wistar rat; conditions: 10 μM; 2 nM [3H] Idazoxan
Procedure: as §1

Sigma σ1 Receptor = biological target: T6, Sigma σ1 Receptor (Homo sapiens, UniProt Q99720); experiment: Sigma σ1 receptor radioligand binding; conditions: 10 μM; 8 nM [3H] Haloperidol
T6 construct: Source: Human jurkat cells; endogenous in cells; host or cells: Jurkat cells
Procedure: as §1

Sigma σ2 Receptor = biological target: T7, Sigma σ2 Receptor (Rattus norvegicus, UniProt Q5U3Y7); experiment: Sigma σ2 receptor radioligand binding; design: species or system Wistar rat; conditions: 3 nM [3H] Ifenprodil
T7 construct: Source: Wistar rat brain; from tissue; host or cells: Wistar rat brain
T7 sequence (Q5U3Y7 1-176): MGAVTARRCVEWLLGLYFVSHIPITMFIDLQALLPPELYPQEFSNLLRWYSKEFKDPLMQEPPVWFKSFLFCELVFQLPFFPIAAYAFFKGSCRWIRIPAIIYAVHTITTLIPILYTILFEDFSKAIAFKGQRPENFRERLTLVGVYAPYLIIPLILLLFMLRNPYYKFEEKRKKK
Procedure: as §1

[2] = biological target: T8, Serotonin Transporter (SERT) (Homo sapiens, UniProt P31645); experiment: Serotonin transporter (SERT) radioligand binding; conditions: 10 μM; 0.15 nM [125I] RTI-55
T8 construct: expressed in transfected cells; host or cells: HEK-293 cells
Procedure: as §1

[3] = biological target: T9, Dopamine Transporter (DAT) (Homo sapiens, UniProt Q01959); experiment: Dopamine transporter (DAT) radioligand binding; conditions: 10 μM, 0.15 nM [125I] RTI-55
T9 construct: expressed in transfected cells; host or cells: CHO cells
Procedure: as §1

Caco-2 monolayer = conditions: for Recovery: human, Caco-2, 1 h, 50 μM, pH 7.4
Text: (§2) The assay relies on the ability of Caco-2 cells to differentiate into enterocytes when cultured on a microporous filter for a period of approximately 21 days. During the culture period, the Caco-2 cells undergo spontaneous morphological and biochemical changes, which produce a polarized monolayer with a well-defined brush border on the apical surface, as well as tight cellular junctions. Therefore, these cells may be used as an in vitro model for the analysis of drug permeability.
(§3) Absorption across the Caco-2 monolayer can be measured in two directions: apical-to-basolateral or basolateral-to-apical, by adding the compound to the apical or the basolateral chamber, respectively. At various time-points, samples are collected from the receiver-chamber for analysis for the rate of absorption as measured by the apparent permeability coefficient (Papp) across the monolayer.
(§4) The Papp value reflects a combination of the test article permeability through both transcellular (through cell membranes) and the paracellular (across the tight junctions between the cells) pathways. The relative contribution of these pathways depends upon the pKa, partition coefficient (log D), molecular radius, and charge of the test article at a given pH. Papp values can then be used to rank-order compounds for their permeability through Caco-2 monolayers.
(§5) Absorption was determined at pH 7.4 across cell monolayers in the apical-to-basolateral direction. Caco-2 cells used to estimate Papp values were grown for 26 days on Transwell inserts in 12-well plates. Monolayer integrity was verified before and after the absorption assay by the methods of transepithelial electrical resistance (Ohm-cm^2) and Lucifer Yellow.
(§6) On the day of the assay, the reference standards were diluted in Hank's balanced salt solution (HBSS), pH 7.4 to a final concentration of 50 μM. […] Dihydrotetrabenazine isomer samples were prepared at a concentration of 50 mM in DMSO. Each stock solution was further diluted in HBSS buffer (pH 7.4) to a final working concentration of 50 μM
(§7) The Caco-2 cell suspensions were prepared as follows. […] Once the cell density and viability were determined, Caco-2 cells were diluted in culture medium to a final working concentration of 2.0×10^5 cells/ml. The Caco-2 culture medium contained Dulbecco's Modified Eagle Medium, 10% fetal bovine serum, 100 μM non-essential amino acids, 100 U/ml penicillin and 100 μg/ml streptomycin.
(§8) Costar polycarbonate membranes (0.4 μm pore size) were pre-equilibrated with Caco-2 culture medium for 1 hour in a 37° C. water-jacketed incubator with 5% CO2. The content of the apical chamber was removed and replaced with 500 μl of Caco-2 cell suspension (200 000 cells/ml). Cells were further maintained in culture for 26 days in a 37° C. water-jacketed incubator with 5% CO2.
(§9) Prior to the assay, all monolayers were washed twice with HBSS and their transepithelial electrical resistance (TEER) was measured with a Millicell-ERS meter. TEER values obtained in the absence of cells were subtracted as background signal. Only monolayer with TEER values over 150 Ohm-cm^2 were used for the absorption assay experiment.
(§10) All absorption experiments were conducted in triplicate at pH 7.4. The rate of absorption of each reference standard and dihydrotetrabenazine test article was assessed in the apical-to-basolateral direction. Aliquots (100 μl) of each working solution (reference standards and test articles at 50 μM) were set aside at the beginning of the assay for the determination of the initial concentration (Co).
(§11) Absorption experiments were initiated by replacing the content of the donor chamber with 500 μl of Hanks Balanced Salt Solution containing test articles or reference compounds. Cells were returned to the CO2 incubator for the absorption assay. Samples of 100 μl were collected from the receiver and donor chambers after 1 hour and were used to determine the percentage of recovery.

in vitro = conditions: human, Caco-2, pH 7.4
Text: as §2, §3, §4, §5, §6, §7, §8, §9, §10, §11

[4] = 0.3 mg/kg i.p., 45 minutes after administration
[5] = 0.3 mg/kg i.p., 3 hours after administration
[6] = 1 mg/kg i.p., 45 minutes after administration
[7] = 1 mg/kg i.p., 3 hours after administration
[8] = 3 mg/kg i.p., 45 minutes after administration
[9] = 3 mg/kg i.p., 3 hours after administration
[10] = 10 mg/kg i.p., 45 minutes after administration
[11] = 10 mg/kg i.p., 3 hours after administration

T3 sequence (P21728 whole entry): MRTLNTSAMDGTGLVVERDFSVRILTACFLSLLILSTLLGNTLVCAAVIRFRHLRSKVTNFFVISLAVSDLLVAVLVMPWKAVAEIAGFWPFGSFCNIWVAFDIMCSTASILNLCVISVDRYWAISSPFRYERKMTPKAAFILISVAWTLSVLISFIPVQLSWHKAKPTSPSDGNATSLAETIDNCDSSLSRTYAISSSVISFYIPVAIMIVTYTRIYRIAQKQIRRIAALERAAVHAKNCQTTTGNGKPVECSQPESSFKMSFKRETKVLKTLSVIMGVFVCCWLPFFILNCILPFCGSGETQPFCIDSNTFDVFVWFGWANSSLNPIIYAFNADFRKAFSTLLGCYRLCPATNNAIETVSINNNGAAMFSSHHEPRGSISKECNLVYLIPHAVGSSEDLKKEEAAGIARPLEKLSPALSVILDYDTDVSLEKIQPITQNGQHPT
T5 sequence (P35462 whole entry): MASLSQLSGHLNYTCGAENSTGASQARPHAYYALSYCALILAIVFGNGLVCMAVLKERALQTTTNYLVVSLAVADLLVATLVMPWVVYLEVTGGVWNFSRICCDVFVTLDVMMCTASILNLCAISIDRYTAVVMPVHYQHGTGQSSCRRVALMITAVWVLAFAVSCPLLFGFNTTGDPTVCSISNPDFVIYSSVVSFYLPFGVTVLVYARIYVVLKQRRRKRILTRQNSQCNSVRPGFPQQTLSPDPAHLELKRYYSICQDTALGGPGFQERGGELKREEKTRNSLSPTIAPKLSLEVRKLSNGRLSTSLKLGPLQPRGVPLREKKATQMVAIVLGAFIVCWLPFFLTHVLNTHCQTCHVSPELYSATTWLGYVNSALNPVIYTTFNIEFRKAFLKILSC
T4 sequence (P14416 whole entry): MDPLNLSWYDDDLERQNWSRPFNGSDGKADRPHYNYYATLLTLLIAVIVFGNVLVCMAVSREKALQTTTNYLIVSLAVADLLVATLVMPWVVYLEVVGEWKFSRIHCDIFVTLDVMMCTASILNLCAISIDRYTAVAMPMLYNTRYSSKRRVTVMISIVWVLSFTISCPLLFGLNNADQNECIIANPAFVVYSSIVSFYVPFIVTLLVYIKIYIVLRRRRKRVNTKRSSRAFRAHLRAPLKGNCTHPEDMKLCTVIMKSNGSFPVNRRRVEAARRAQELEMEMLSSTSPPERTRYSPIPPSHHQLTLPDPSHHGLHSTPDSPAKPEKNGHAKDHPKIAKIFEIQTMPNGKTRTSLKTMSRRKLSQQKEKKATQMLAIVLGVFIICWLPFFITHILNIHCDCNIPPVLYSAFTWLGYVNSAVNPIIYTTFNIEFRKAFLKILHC
T9 sequence (Q01959 whole entry): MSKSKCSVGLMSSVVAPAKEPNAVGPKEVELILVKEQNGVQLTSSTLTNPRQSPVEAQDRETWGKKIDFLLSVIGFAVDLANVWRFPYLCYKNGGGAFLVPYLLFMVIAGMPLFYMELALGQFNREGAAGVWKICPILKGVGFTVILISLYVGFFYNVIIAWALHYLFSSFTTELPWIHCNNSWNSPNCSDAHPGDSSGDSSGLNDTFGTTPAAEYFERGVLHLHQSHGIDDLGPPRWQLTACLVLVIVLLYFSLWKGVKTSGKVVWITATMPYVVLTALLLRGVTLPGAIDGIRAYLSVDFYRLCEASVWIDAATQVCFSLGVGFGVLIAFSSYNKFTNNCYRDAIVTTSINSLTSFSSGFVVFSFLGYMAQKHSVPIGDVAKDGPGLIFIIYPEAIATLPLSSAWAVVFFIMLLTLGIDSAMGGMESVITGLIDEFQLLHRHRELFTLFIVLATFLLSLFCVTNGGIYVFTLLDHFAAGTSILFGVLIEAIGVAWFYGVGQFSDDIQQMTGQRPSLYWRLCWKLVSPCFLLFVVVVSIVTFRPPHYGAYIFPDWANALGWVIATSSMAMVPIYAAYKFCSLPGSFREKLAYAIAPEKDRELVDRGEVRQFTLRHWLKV
T8 sequence (P31645 whole entry): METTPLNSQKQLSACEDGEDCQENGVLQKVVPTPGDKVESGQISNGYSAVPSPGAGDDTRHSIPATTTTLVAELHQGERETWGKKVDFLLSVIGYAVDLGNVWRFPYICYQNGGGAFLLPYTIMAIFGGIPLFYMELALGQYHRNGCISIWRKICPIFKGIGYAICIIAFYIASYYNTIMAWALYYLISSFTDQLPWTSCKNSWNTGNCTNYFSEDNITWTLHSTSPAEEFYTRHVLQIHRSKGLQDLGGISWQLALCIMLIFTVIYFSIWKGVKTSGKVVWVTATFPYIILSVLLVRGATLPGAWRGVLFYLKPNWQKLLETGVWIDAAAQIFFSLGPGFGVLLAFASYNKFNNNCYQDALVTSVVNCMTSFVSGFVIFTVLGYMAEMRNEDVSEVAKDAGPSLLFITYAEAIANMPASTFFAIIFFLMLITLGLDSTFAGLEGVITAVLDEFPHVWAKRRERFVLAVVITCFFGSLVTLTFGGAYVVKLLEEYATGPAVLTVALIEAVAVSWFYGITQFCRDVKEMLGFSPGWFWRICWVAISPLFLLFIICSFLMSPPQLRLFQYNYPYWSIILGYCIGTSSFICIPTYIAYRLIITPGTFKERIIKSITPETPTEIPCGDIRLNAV
T6 sequence (Q99720 whole entry): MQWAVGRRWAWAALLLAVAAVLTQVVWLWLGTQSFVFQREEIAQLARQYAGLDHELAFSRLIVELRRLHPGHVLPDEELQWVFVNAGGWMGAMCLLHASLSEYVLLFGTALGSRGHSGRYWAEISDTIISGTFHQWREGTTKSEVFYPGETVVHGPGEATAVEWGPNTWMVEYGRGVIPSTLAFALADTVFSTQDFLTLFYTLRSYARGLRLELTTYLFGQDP
Chain of VMAT2 (Q05940 whole entry): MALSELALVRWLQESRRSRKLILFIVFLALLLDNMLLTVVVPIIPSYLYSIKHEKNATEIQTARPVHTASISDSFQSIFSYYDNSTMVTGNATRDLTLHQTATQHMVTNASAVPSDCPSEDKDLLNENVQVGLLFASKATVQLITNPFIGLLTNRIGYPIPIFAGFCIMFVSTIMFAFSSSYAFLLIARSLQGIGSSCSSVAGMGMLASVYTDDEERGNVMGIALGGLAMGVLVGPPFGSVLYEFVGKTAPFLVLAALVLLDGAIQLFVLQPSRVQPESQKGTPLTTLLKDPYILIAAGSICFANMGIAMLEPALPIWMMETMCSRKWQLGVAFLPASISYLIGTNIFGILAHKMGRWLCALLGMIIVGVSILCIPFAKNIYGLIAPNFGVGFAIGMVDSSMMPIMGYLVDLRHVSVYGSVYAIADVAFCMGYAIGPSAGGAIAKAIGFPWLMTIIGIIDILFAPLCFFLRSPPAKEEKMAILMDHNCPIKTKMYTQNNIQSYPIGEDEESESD

COc1cc2c(cc1OC)C1CC(=O)C(CC(C)C)CN1CC2 (racemic) [Tetrabenazine, 1,3,4,6,7,11b-hexahydro-9,10-dimethoxy-3-(2-methylpropyl)-2H-benzo(a)quinolizin-2-one]
Inactivity Duration (Male Sprague-Dawley rats; [4]): 390.4 ± 37.4 s
Large movements Duration (Male Sprague-Dawley rats; [4]): 66.8 ± 10.7 s
Large movements Occurrence (Male Sprague-Dawley rats; [4]): 253 ± 32
Inactivity Duration (Male Sprague-Dawley rats; [5]): 545.9 ± 37.1 s
Large movements Duration (Male Sprague-Dawley rats; [5]): 24.3 ± 4.2 s
Large movements Occurrence (Male Sprague-Dawley rats; [5]): 96 ± 14
Inactivity Duration (Male Sprague-Dawley rats; [6]): 456.5 ± 50.5 s
Large movements Duration (Male Sprague-Dawley rats; [6]): 46.5 ± 8.6 s
Large movements Occurrence (Male Sprague-Dawley rats; [6]): 189 ± 32
Inactivity Duration (Male Sprague-Dawley rats; [7]): 556.9 ± 31.1 s
Large movements Duration (Male Sprague-Dawley rats; [7]): 21.5 ± 4.0 s
Large movements Occurrence (Male Sprague-Dawley rats; [7]): 90 ± 16
Inactivity Duration (Male Sprague-Dawley rats; [8]): 697.8 ± 39.7 s
Large movements Duration (Male Sprague-Dawley rats; [8]): 8.7 ± 5.9 s
Large movements Occurrence (Male Sprague-Dawley rats; [8]): 38 ± 25
Inactivity Duration (Male Sprague-Dawley rats; [9]): 729.9 ± 26.8 s
Large movements Duration (Male Sprague-Dawley rats; [9]): 1.7 ± 0.9 s
Large movements Occurrence (Male Sprague-Dawley rats; [9]): 9 ± 4
Inactivity Duration (Male Sprague-Dawley rats; [10]): 723.1 ± 46.5 s
Large movements Duration (Male Sprague-Dawley rats; [10]): 0.2 ± 0.2 s
Large movements Occurrence (Male Sprague-Dawley rats; [10]): 1 ± 1
Inactivity Duration (Male Sprague-Dawley rats; [11]): 762.1 ± 40.7 s
Large movements Duration (Male Sprague-Dawley rats; [11]): 0.6 ± 0.3 s
Large movements Occurrence (Male Sprague-Dawley rats; [11]): 3 ± 1
sedative effect (in words) (Male Sprague-Dawley rats; 0.3-10 mg/kg i.p., 45 minutes and 3 hours after administration): dose-dependent sedative effect; also recorded: dose related sedative effect
affinity for VMAT2 in comparison to VMAT1 (VMAT2): ≥ 200 fold

O=C(CCCN1CCC(O)(c2ccc(Cl)cc2)CC1)c1ccc(F)cc1 [Haloperidol, reference compound]
Inactivity Duration (Male Sprague-Dawley rats; [6]): 637.2 ± 60.1 s
Large movements Duration (Male Sprague-Dawley rats; [6]): 14.8 ± 8.5 s
Large movements Occurrence (Male Sprague-Dawley rats; [6]): 58 ± 33
Inactivity Duration (Male Sprague-Dawley rats; [7]): 723.6 ± 50.2 s
Large movements Duration (Male Sprague-Dawley rats; [7]): 2.2 ± 2.0 s
Large movements Occurrence (Male Sprague-Dawley rats; [7]): 9 ± 8

COc1cc2c(cc1OC)[C@H]1C[C@H](O)[C@@H](CC(C)C)CN1CC2 (single isomer, unassigned) [Isomer A, 3,11b-cis-dihydrotetrabenazine]
Percentage Inhibition of Specific Binding, α2A Receptor (Adrenergic α2A Receptor): 86%
Percentage Inhibition of Specific Binding, α2B Receptor (Adrenergic α2B Receptor): 44%
Percentage Inhibition of Specific Binding, D1 Receptor (Dopamine D1 Receptor): 78%
Percentage Inhibition of Specific Binding, D2L Receptor (Dopamine D2L Receptor): 87%
Percentage Inhibition of Specific Binding, D3 Receptor (Dopamine D3 Receptor): 69%
Percentage Inhibition of Specific Binding, I2 Receptor [1]: 74%
Percentage Inhibition of Specific Binding, σ1 Receptor (Sigma σ1 Receptor): 48%
inhibition at 10 µM (Sigma σ2 Receptor; read-out: Percentage Inhibition of Specific Binding, σ2 Receptor): 64%
Percentage Inhibition of Specific Binding, SERT [2]: 19%
inhibition at 10 µM ([3]; read-out: Percentage Inhibition of Specific Binding, DAT): 3%
permeability in the Caco-2 model (in words) (Caco-2 monolayer): high permeability
Recovery (Caco-2 monolayer): 106.8 ± 7.9%

OC[C@@H](O)[C@@H](O)[C@H](O)[C@H](O)CO [Mannitol]
Papp A→B at 1 h, 50 μM (in vitro): 1.18 ± 0.14 ×10⁻⁶ cm/s
recovery at 1 h, 50 μM (in vitro): 97.1 ± 0.3%

C[C@]12CC[C@H]3[C@@H](CCC4=CC(=O)CC[C@@]43C)[C@@H]1CC[C@@H]2O [Testosterone]
recovery at 1 h, 50 μM (in vitro): 105 ± 10.6%

O=C(O)c1ccccc1O [Salicylic Acid]
Papp A→B at 1 h, 50 μM (in vitro): 8.91 ± 8.14 ×10⁻⁶ cm/s
recovery at 1 h, 50 μM (in vitro): 91.5 ± 11.4%

COc1cc2c(cc1OC)[C@H]1C[C@@H](O)[C@@H](CC(C)C)CN1CC2 (single isomer, unassigned) [Isomer D, 3,11b-cis-dihydrotetrabenazine]
Percentage Inhibition of Specific Binding, α2A Receptor (Adrenergic α2A Receptor): 87%
Percentage Inhibition of Specific Binding, α2B Receptor (Adrenergic α2B Receptor): 50%
Percentage Inhibition of Specific Binding, D1 Receptor (Dopamine D1 Receptor): 38%
Percentage Inhibition of Specific Binding, D2L Receptor (Dopamine D2L Receptor): 58%
Percentage Inhibition of Specific Binding, D3 Receptor (Dopamine D3 Receptor): 63%
Percentage Inhibition of Specific Binding, I2 Receptor [1]: 55%
Percentage Inhibition of Specific Binding, σ1 Receptor (Sigma σ1 Receptor): 82%
Percentage Inhibition of Specific Binding, σ2 Receptor (Sigma σ2 Receptor; 10 μM): 69%
Percentage Inhibition of Specific Binding, SERT [2]: 8%
Percentage Inhibition of Specific Binding, DAT [3]: 2%
permeability in the Caco-2 model (in words) (Caco-2 monolayer): high permeability
Recovery (Caco-2 monolayer): 106.5 ± 23.8%
